14 compounds from patent US20150239831A1, “INHIBITORS OF CENTRAL NERVOUS SYSTEM VASOACTIVE INHIBITORY PEPTIDE RECEPTOR 2” (The Trustees Of Columbia University In The City Of New York, priority 2012, published 2015) can be followed below.

Common to all, as to format: cell-based
What all share (parameters): expressed in transfected cells; host or cells: HEK293 cells transfected with VIPR2 in pCDNA3.1 (as described)

The target of test [1] is T1, VIPR2 (Homo sapiens, UniProt P41587).
T1 sequence (P41587 24-438): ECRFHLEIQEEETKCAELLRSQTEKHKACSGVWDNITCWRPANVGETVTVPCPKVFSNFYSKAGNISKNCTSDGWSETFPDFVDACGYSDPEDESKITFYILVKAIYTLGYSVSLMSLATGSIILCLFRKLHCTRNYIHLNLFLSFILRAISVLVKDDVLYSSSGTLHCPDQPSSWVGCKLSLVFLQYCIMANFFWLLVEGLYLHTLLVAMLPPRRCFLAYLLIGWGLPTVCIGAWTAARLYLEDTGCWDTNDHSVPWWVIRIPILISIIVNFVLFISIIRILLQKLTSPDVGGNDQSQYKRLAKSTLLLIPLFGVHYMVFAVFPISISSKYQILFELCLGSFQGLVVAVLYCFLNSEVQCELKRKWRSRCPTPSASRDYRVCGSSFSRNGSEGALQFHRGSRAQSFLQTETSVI
Nature of the test: Inhibition of VIP-induced β-arrestin recruitment (% Activity Arrestin). The following applies: Batch 2. From the text:
(§1) In a further non-limiting embodiment of the invention, the ability of a compound to inhibit VIPR2 GPCR activity may be tested, for example, using the PathHunter® eXpress β-Arrestin GPCR system (Discoverx Corporation, Fremont, Calif., US), as used by Chu et al., 2010, Molecular Pharmacol. 7795-101. In this assay, β-Arrestin is fused to the “Enzyme Acceptor” (“EA”), an N-terminal deletion mutant of β-gal, and the GPCR of interest is fused to a smaller (42 amino acids), weakly complementing portion of the β-gal enzyme (termed “ProLink™”). In cells that stably express these fusion proteins, the interaction of β-Arrestin and the GPCR following ligand stimulation forces the complementation of the two β-gal fragments resulting in the formation of a functional enzyme that converts substrate to detectable signal. In the absence of an interaction between the GPCR and β-Arrestin, the enzyme activity is low due to the low affinity of the two enzyme fragments. For example, a nucleic acid encoding VIPR2, for example hVIPR2, may be cloned into the ProLink vector (DiscoveRx) for GPCR-ProLink fusion protein production. Parental HEK293 cells that stably express β-arrestin2-β-gal-EA fusion protein (DiscoveRx) may be detached and transiently transfected with the VIPR2-containing vector using Fugene6 transfection reagent in suspension mode. Transfected cells in assay medium may be plated into test plates, for example at 15,000 cells/25 μl/well. After overnight incubation, 500 nl of an inhibitor or test inhibitor may be introduced into the test plate followed by 2 h incubation at 37° C., 5% CO2. Flash detection reagents may be added at 12.5 μl/well. After 5 min to 1 h of room-temperature incubation, the cell plates may be read on CLIPR (PerkinElmer Life and Analytical Sciences)or Acquest (Molecular Devices, Sunnyvale, Calif.) for luminescence signal.
(§2) A series of compounds were prepared using a synthetic method analogous to that set forth in Scheme 1, above, and then tested for their ability to inhibit VIP-induced cAMP elevation and β-arrestin recruitment.
(§3) A series of compounds were prepared using a synthetic method analogous to that set forth in Scheme 1, above, and then tested for their ability to inhibit VIP-induced cAMP elevation and β-arrestin recruitment, as described herein (Discoverx Corporation, Fremont, Calif., US). Compound activities were also tested in a BRET-based assay, as described herein. The results are shown below in Tables 1-4, above.

Test [2] deals with T1, VIPR2. Nature of the test: Inhibition of VIP-induced cAMP elevation (% Activity cAMP). As to conditions: Batch 2.
Excerpt: (§4) In a further non-limiting embodiment of the invention, the ability of a compound to inhibit VIPR2 and thereby […] a VIP-induced increase in cAMP may be measured using a Homogeneous Time-Resolved Fluorescence (“HTRF® assay; Cisbio Bioassays) as used in Chu et al., 2010, Molecular Pharmacol. 7795-101. In a method as used in Chu et al., 2010, Molecular Pharmacol. 7795-101, HEK293 cells may be transfected with nucleic acid encoding VIPR2, for example human VIPR2 (“hVIPR2”), for example comprised in a vector such as pCDNA3.1 vector. Successful transformants may then be selected, for example using 800 μg/ml G418. Clonal stable cell lines may then be generated by limited dilution to single cells and then may be clonally expanded and tested for VIP -dependent cAMP response. For the cAMP assay, about 3000-15,000 cells (in about 4-25 μl) may be placed in a well of an assay plate. The next day, inhibitor or test inhibitor and VIP may be added in a volume about 1-2 percent of the initial volume. Assay plates may then be returned to a cell incubator for 30 min before addition of a one-half volume of cAMP conjugate and, relative to the amount of cAMP conjugate, an equal volume of anti-cAMP conjugate (Cisbio). After at least 1 h of room-temperature incubation, HTRF signal may be read, for example using Viewlux or EnVision (PerkinElmer Life and Analytical Sciences, Waltham, Mass.). The ratio of […] at 665 nm and 620 nm times 10,000 may be calculated and plotted.
as §2, §3

The target of test [3] is T1, VIPR2. Nature of the test: % Activity: inhibition of VIP-induced cAMP elevation and β-arrestin recruitment (Table 2).
Excerpt: as §4, §1, §3

Consider `O=C(NCc1ccccc1)[C@H](Cc1ccccc1)C[C@H](O)CNS(=O)(=O)c1ccc([N+](=O)[O-])cc1` [Compound B3A], for which, in test [1], the inhibition at 0.5 µM amounted to 1.8%, the inhibition at 1 µM worked out at 4.4% and the inhibition at 5 µM amounted to 24.2%. In addition, in test [2], the inhibition at 0.5 µM was -1.1%, the inhibition at 1 µM is -1.3% and the inhibition at 5 µM was -2.9%. Moreover, the “% Activity” value in test [3] is listed as 10.65%.
For `O=C(NCc1ccccc1)[C@@H](Cc1ccccc1)C[C@H](O)CNS(=O)(=O)c1ccc([N+](=O)[O-])cc1` [Compound B3B], in test [1], the inhibition at 0.5 µM was -0.3%, the inhibition at 1 µM is -4.1% and the inhibition at 5 µM was 7.2%. Further, in test [2], the inhibition at 0.5 µM is -1%, the inhibition at 1 µM came out at 1.5% and the inhibition at 5 µM amounted to 4.9%. Besides, in test [3], the “% Activity” value turned out to be 6.05%.
Take `O=C(NC1CCCCCC1)[C@H](Cc1ccccc1)C[C@H](O)CNS(=O)(=O)c1ccc([N+](=O)[O-])cc1` [Compound B5A]: in test [1], the inhibition at 0.5 µM was -19.2%, the inhibition at 1 µM is -5.4% and the inhibition at 5 µM is -2.4%. Moreover, in test [2], the inhibition at 0.5 µM came out at 1.7%, the inhibition at 1 µM was found to be 5.6% and the inhibition at 5 µM was 12.9%. The “% Activity” value in test [3] came out at 5.25%.
For `O=C(NC1CCCCCC1)[C@@H](Cc1ccccc1)C[C@H](O)CNS(=O)(=O)c1ccc([N+](=O)[O-])cc1` [Compound B5B], in test [1], the inhibition at 0.5 µM was -4%, the inhibition at 1 µM turned out to be 3.6% and the inhibition at 5 µM amounted to 6.8%. In test [2], the inhibition at 0.5 µM is 15.5%, the inhibition at 1 µM worked out at 10.6% and the inhibition at 5 µM was determined as 14.3%. The “% Activity” value in test [3] is 10.55%.
With `O=C(NN1CCCCC1)[C@H](Cc1ccccc1)C[C@H](O)CNS(=O)(=O)c1ccc([N+](=O)[O-])cc1` [Compound B6A], in test [1], the inhibition at 0.5 µM is -6.4%, the inhibition at 1 µM came to 4.4% and the inhibition at 5 µM stood at 6.5%. Besides, in test [2], the inhibition at 0.5 µM turned out to be 6.3%, the inhibition at 1 µM is 7.1% and the inhibition at 5 µM was determined as 4.4%. In addition, the “% Activity” value in test [3] was 5.45%.
On to `O=C(NN1CCCCC1)[C@@H](Cc1ccccc1)C[C@H](O)CNS(=O)(=O)c1ccc([N+](=O)[O-])cc1` [Compound B6B], for which, in test [1], the inhibition at 0.5 µM is -0.9%, the inhibition at 1 µM turned out to be 3.3% and the inhibition at 5 µM turned out to be 4.7%. Also, in test [2], the inhibition at 0.5 µM was 9.2%, the inhibition at 1 µM turned out to be 12.3% and the inhibition at 5 µM was determined as 6%. In addition, the “% Activity” value in test [3] was 5.35%.
For `CCCCNC(=O)[C@H](Cc1ccccc1)C[C@H](O)CNS(=O)(=O)c1ccc([N+](=O)[O-])cc1` [Compound B7A], in test [1], the inhibition at 0.5 µM is -5.6%, the inhibition at 1 µM worked out at 1.9% and the inhibition at 5 µM amounted to 13.8%. Also, in test [2], the inhibition at 0.5 µM is 0.9%, the inhibition at 1 µM was 5.1% and the inhibition at 5 µM stood at 5.3%. In test [3], the “% Activity” value was found to be 9.55%.
On to `CCCCNC(=O)[C@@H](Cc1ccccc1)C[C@H](O)CNS(=O)(=O)c1ccc([N+](=O)[O-])cc1` [Compound B7B], for which, in test [1], the inhibition at 0.5 µM was 26.8%, the inhibition at 1 µM is 20.4% and the inhibition at 5 µM was determined as 20.7%. For the same compound, in test [2], the inhibition at 0.5 µM was -1.5%, the inhibition at 1 µM was found to be 0.6% and the inhibition at 5 µM amounted to 6.2%. In test [3], the “% Activity” value is 13.45%.
In the case of `CC1CCC(NC(=O)[C@H](Cc2ccccc2)C[C@H](O)CNS(=O)(=O)c2ccc([N+](=O)[O-])cc2)CC1` (some centres unmarked) [Compound B8A], in test [1], the inhibition at 0.5 µM is 13.4%, the inhibition at 1 µM was -1.3% and the inhibition at 5 µM was determined as 0.4%. Moreover, in test [2], the inhibition at 0.5 µM is -5%, the inhibition at 1 µM was -2.5% and the inhibition at 5 µM is -2.8%. The “% Activity” value in test [3] is listed as −1.2%.
For the compound `CC1CCC(NC(=O)[C@@H](Cc2ccccc2)C[C@H](O)CNS(=O)(=O)c2ccc([N+](=O)[O-])cc2)CC1` (some centres unmarked) [Compound B8B], in test [1], the inhibition at 0.5 µM is 5.7%, the inhibition at 1 µM was -0.4% and the inhibition at 5 µM was -0.8%. In addition, in test [2], the inhibition at 0.5 µM was -0.7%, the inhibition at 1 µM was determined as 9.5% and the inhibition at 5 µM is 5.1%. For the same compound, in test [3], the “% Activity” value was 2.15%.
Take `O=C([C@H](Cc1ccccc1)C[C@H](O)CNS(=O)(=O)c1ccc([N+](=O)[O-])cc1)N1CCOCC1` [Compound B9A]: in test [1], the inhibition at 0.5 µM was -4.3%, the inhibition at 1 µM stood at 8.9% and the inhibition at 5 µM was -1.2%. In addition, in test [2], the inhibition at 0.5 µM is -3.8%, the inhibition at 1 µM was -1.6% and the inhibition at 5 µM was found to be 2.4%. Also, the “% Activity” value in test [3] stood at 0.6%.
Turning to `O=C([C@@H](Cc1ccccc1)C[C@H](O)CNS(=O)(=O)c1ccc([N+](=O)[O-])cc1)N1CCOCC1` [Compound B9B], in test [1], the inhibition at 0.5 µM worked out at 7%, the inhibition at 1 µM was -13% and the inhibition at 5 µM is 0.3%. Besides, in test [2], the inhibition at 0.5 µM was -5.8%, the inhibition at 1 µM is 10.4% and the inhibition at 5 µM is 3%. Besides, the “% Activity” value in test [3] was 1.65%.
Regarding `C[C@H](CC(C)(C)C)NC(=O)[C@H](Cc1ccccc1)C[C@H](O)CNS(=O)(=O)c1ccc([N+](=O)[O-])cc1` [Compound B10A], in test [1], the inhibition at 0.5 µM amounted to 23.3%, the inhibition at 1 µM is 3% and the inhibition at 5 µM is -10.3%. For the same compound, in test [2], the inhibition at 0.5 µM was -7.9%, the inhibition at 1 µM turned out to be 4.4% and the inhibition at 5 µM is -0.1%. For the same compound, in test [3], the “% Activity” value is given as −5.2%.
In the case of `C[C@H](CC(C)(C)C)NC(=O)[C@@H](Cc1ccccc1)C[C@H](O)CNS(=O)(=O)c1ccc([N+](=O)[O-])cc1` [Compound B10B], in test [1], the inhibition at 0.5 µM is 36.8%, the inhibition at 1 µM is 27.9% and the inhibition at 5 µM stood at 20.2%. Further, in test [2], the inhibition at 0.5 µM is 6.5%, the inhibition at 1 µM is 19.6% and the inhibition at 5 µM was determined as 7.4%. Also, the “% Activity” value in test [3] is 13.8000%.
